Where “and” joins values, the source holds several entries; their conditions need not be identical. Equal entries are not always repeated.
Test system: 435261-313-R-J1-PDC tumor spheroid viability
Assay: Anticancer human tumor 435261-313-R-J1-PDC patient-derived colon adenocarcinoma cell line growth inhibition [PI3K]
Conditions: spheroids with HUVEC and MSC; for viability, T/C: stronger effect = lower value
How it was run: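 High-throughput combination screen: PI3K inhibitors crossed with targeted small molecules on complex spheroids of tumor cells, HUVEC and MSCs at 37 degrees C, 5% CO2. Top concentration was at or near clinical Cmax (otherwise 10 microM), with half-log decrements.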

[1] = curve of first compound, second compound 0.0316 µM
[2] = curve of first compound, second compound 0.1 µM
[3] = curve of first compound, second compound 0.316 µM
[4] = curve of first compound, second compound 1 µM
[5] = second compound 0.0316 µM, first compound 0.0316 µM
[6] = second compound 0.0316 µM, first compound 0.1 µM
[7] = second compound 0.1 µM, first compound 0.0316 µM
[8] = second compound 0.1 µM, first compound 0.1 µM
[9] = second compound 0.316 µM, first compound 0.0316 µM
[10] = second compound 0.316 µM, first compound 0.1 µM
[11] = second compound 1 µM, first compound 0.0316 µM
[12] = second compound 1 µM, first compound 0.1 µM
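Also: spheroids exposed to compounds for 7 days.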

CC(=O)c1c(C)c2cnc(Nc3ccc(N4CCNCC4)cn3)nc2n(C2CCCC2)c1=O + CC(Nc1ccc2c(c1)OCCn1cc(N3C(=O)OCC3C(F)F)nc1-2)C(N)=O
IC50 (curve of first compound, second compound 0.00316 µM): > 100 nM
IC50 (curve of first compound, second compound 0.01 µM): > 100 nM
IC50 [1]: 69.5 nM
IC50 [2]: 0.458 nM
IC50 [3]: < 0.316 nM
IC50 [4]: < 0.316 nM
viability, T/C (second compound 0.00316 µM, first compound 0.000316 µM): 78.8%
viability, T/C (second compound 0.00316 µM, first compound 0.001 µM): 91.4%
viability, T/C (second compound 0.00316 µM, first compound 0.00316 µM): 92.8%
viability, T/C (second compound 0.00316 µM, first compound 0.01 µM): 82.7%
viability, T/C (second compound 0.00316 µM, first compound 0.0316 µM): 84.2%
viability, T/C (second compound 0.00316 µM, first compound 0.1 µM): 59.2%
viability, T/C (second compound 0.01 µM, first compound 0.000316 µM): 94.7%
viability, T/C (second compound 0.01 µM, first compound 0.001 µM): 83.6%
viability, T/C (second compound 0.01 µM, first compound 0.00316 µM): 100%
viability, T/C (second compound 0.01 µM, first compound 0.01 µM): 91.7%
viability, T/C (second compound 0.01 µM, first compound 0.0316 µM): 87.5%
viability, T/C (second compound 0.01 µM, first compound 0.1 µM): 68.6%
viability, T/C (second compound 0.0316 µM, first compound 0.000316 µM): 64.2%
viability, T/C (second compound 0.0316 µM, first compound 0.001 µM): 66.7%
viability, T/C (second compound 0.0316 µM, first compound 0.00316 µM): 76.9%
viability, T/C (second compound 0.0316 µM, first compound 0.01 µM): 86.2%
viability, T/C [5]: 69.1%
viability, T/C [6]: 40.4%
viability, T/C (second compound 0.1 µM, first compound 0.000316 µM): 49.2%
viability, T/C (second compound 0.1 µM, first compound 0.001 µM): 52.7%
viability, T/C (second compound 0.1 µM, first compound 0.00316 µM): 38.8%
viability, T/C (second compound 0.1 µM, first compound 0.01 µM): 32.5%
viability, T/C [7]: 33.6%
viability, T/C [8]: 23.6%
viability, T/C (second compound 0.316 µM, first compound 0.000316 µM): 21.7%
viability, T/C (second compound 0.316 µM, first compound 0.001 µM): 22%
viability, T/C (second compound 0.316 µM, first compound 0.00316 µM): 19.3%
viability, T/C (second compound 0.316 µM, first compound 0.01 µM): 21.5%
viability, T/C [9]: 20.5%
viability, T/C [10]: 18.1%
viability, T/C (second compound 1 µM, first compound 0.000316 µM): 16.8%
viability, T/C (second compound 1 µM, first compound 0.001 µM): 17.1%
viability, T/C (second compound 1 µM, first compound 0.00316 µM): 17.7%
viability, T/C (second compound 1 µM, first compound 0.01 µM): 16.5%
viability, T/C [11]: 18.2%
viability, T/C [12]: 12.2%

CCCS(=O)(=O)Nc1ccc(F)c(C(=O)c2c[nH]c3ncc(-c4ccc(Cl)cc4)cc23)c1F
viability, T/C (compound 0.0316 µM): 77% and 97.8%
viability, T/C (compound 0.1 µM): 91% and 84.7%
viability, T/C (compound 0.316 µM): 110% and 111%
viability, T/C (compound 1 µM): 120% and 96.2%
viability, T/C (compound 3.16 µM): 88.7% and 98.1%
viability, T/C (compound 10 µM): 5.61% and 4.11%
IC50 (curve of compound): 5400 nM and 5680 nM

Cn1ncc(Cl)c1-c1cc(C(=O)NC(CN)Cc2cccc(F)c2)sc1Cl (stereo unspecified) + CC(Nc1ncnc2nc[nH]c12)c1cc2cccc(Cl)c2c(=O)n1-c1ccccc1
IC50 [1]: 1400 nM
IC50 [2]: 527 nM
IC50 [3]: 565 nM
IC50 [4]: 863 nM
IC50 (curve of first compound, second compound 3.16 µM): 679 nM
IC50 (curve of first compound, second compound 10 µM): 155 nM
viability, T/C [5]: 95.1%
viability, T/C [6]: 74.4%
viability, T/C (second compound 0.0316 µM, first compound 0.316 µM): 75.1%
viability, T/C (second compound 0.0316 µM, first compound 1 µM): 63.1%
viability, T/C (second compound 0.0316 µM, first compound 3.16 µM): 27.8%
viability, T/C (second compound 0.0316 µM, first compound 10 µM): 14.2%
viability, T/C [7]: 86.6%
viability, T/C [8]: 96.7%
viability, T/C (second compound 0.1 µM, first compound 0.316 µM): 50%
viability, T/C (second compound 0.1 µM, first compound 1 µM): 39.9%
viability, T/C (second compound 0.1 µM, first compound 3.16 µM): 23.9%
viability, T/C (second compound 0.1 µM, first compound 10 µM): 9.05%
viability, T/C [9]: 106%
viability, T/C [10]: 58.1%
viability, T/C (second compound 0.316 µM, first compound 0.316 µM): 87.8%
viability, T/C (second compound 0.316 µM, first compound 1 µM): 26.8%
viability, T/C (second compound 0.316 µM, first compound 3.16 µM): 22.5%
viability, T/C (second compound 0.316 µM, first compound 10 µM): 10.6%
viability, T/C [11]: 94.7%
viability, T/C [12]: 82.9%
viability, T/C (second compound 1 µM, first compound 0.316 µM): 70.8%
viability, T/C (second compound 1 µM, first compound 1 µM): 47.7%
viability, T/C (second compound 1 µM, first compound 3.16 µM): 25.6%
viability, T/C (second compound 1 µM, first compound 10 µM): 15.7%
viability, T/C (second compound 3.16 µM, first compound 0.0316 µM): 87.3%
viability, T/C (second compound 3.16 µM, first compound 0.1 µM): 81.8%
viability, T/C (second compound 3.16 µM, first compound 0.316 µM): 66.8%
viability, T/C (second compound 3.16 µM, first compound 1 µM): 40.5%
viability, T/C (second compound 3.16 µM, first compound 3.16 µM): 21.9%
viability, T/C (second compound 3.16 µM, first compound 10 µM): 9.23%
viability, T/C (second compound 10 µM, first compound 0.0316 µM): 62.1%
viability, T/C (second compound 10 µM, first compound 0.1 µM): 62.8%
viability, T/C (second compound 10 µM, first compound 0.316 µM): 35%
viability, T/C (second compound 10 µM, first compound 1 µM): 27.5%
viability, T/C (second compound 10 µM, first compound 3.16 µM): 22.1%
viability, T/C (second compound 10 µM, first compound 10 µM): 6.29%
